Patent US7504406B2, “Derivatives of pyrido[2,3-d]pyrimidine, the preparation thereof, and the therapeutic application of the same” (Sanofi-Aventis, priority 2005, dated 2009)

How the values were obtained:
Format in all cases: cell-based
[1] = system: K-562 line; assay: MTS cell proliferation and viability test, K-562 line; settings: Homo sapiens, K562, K-562 leukaemia line, 72 hours of incubation, read-out: IC50 (50% loss of cell proliferation and cell viability)
Protocol: The compounds of formula (I) according to the present invention were tested in vitro on a panel of tumour lines of human origin, originating: • from breast cancer: MDA-MB231 (American Type culture collection, Rockville, Md., USA, ATCC-HTB26), MDA-A1 or MDA-ADR (called multi-drug resistant MDR line, and described by E. Collomb et al., in Cytometry, 12(1):15-25, 1991), and MCF7 (ATCC-HTB22), • from prostate cancer: DU145 (ATCC-HTB81) and PC3 (ATCC-CRL1435), • from colon cancer: HCT116 (ATCC-CCL247) and HCT15 (ATCC-CCL225), • from lung cancer: H460 (described by Carmichael in Cancer Research 47 (4):936-942, 1987 and provided by the National Cancer Institute, Frederick Cancer Research and Development Center, Frederick, Md., USA), • from glioblastoma: SF268 (described by Westphal in Biochemical & Biophysical Research Communications 132 (1): 284-289, 1985 and provided by the National Cancer Institute, Frederick Cancer Research and Development Center, Frederick, Md., USA), • from leukaemia: CMLT1 (described by Kuriyama et al. in Blood, 74: 1989, 1381-1387, by Soda et al. in British Journal of Haematology, 59: 1985, 671-679 and by Drexler, in Leukemia Research, 18: 1994, 919-927 and provided by the company DSMZ (Deutsche Sammlung von Mikroorganismen und Zellkulturen GmbH) Mascheroder Weg 1b, 38124 Braunschweig, Germany), K-562 (described by Lozzio et al., J Natl Cancer Inst 50: 535 (1973), by Lozzio et al., Blood 45: 321 (1975), and provided by DSMZ No. ACC 10), KG-1a (described by Koeffler et al., Blood 56: 265 (1980), and provided by DSMZ No. ACC 421), and Kasumi-1 (described by Asou et al., Blood 77: 2031 (1991), and provided by DSMZ No. ACC 220).
The cell proliferation and viability were determined in a test using 3-(4,5-dimethylthiazol-2-yl)-5-(3-carboxymethoxyphenyl)-2-(4-sulphophenyl)-2H-tetrazolium (MTS) according to Fujishita T. et al., Oncology, 2003, 64 (4), 399-406. In this test, the mitochondrial ability of the live cells to convert MTS to a coloured compound is measured after 72 hours of incubation of a compound of formula (I) according to the invention. The concentrations of compound according to the invention which result in a 50% loss of cell proliferation and cell viability (IC50) are between 1 nM and 10 μM, depending on the tumor line and the compound tested. For example, compound No. 1 has an IC50 of 40 nM on the K-562 line, an IC50 of 50 nM on the KG-1a line and an IC50 of 40 nM on the Kasumi-1 line.

[2] = system: SF268; assay: MTS cell proliferation and viability test, SF268 line; settings: Homo sapiens, SF-268, SF268 glioblastoma line, 72 hours of incubation, read-out: IC50 (50% loss of cell proliferation and cell viability)
Protocol: […]
(§1) The cell proliferation and viability were determined in a test using 3-(4,5-dimethylthiazol-2-yl)-5-(3-carboxymethoxyphenyl)-2-(4-sulphophenyl)-2H-tetrazolium (MTS) according to Fujishita T. et al., Oncology, 2003, 64 (4), 399-406. In this test, the mitochondrial ability of the live cells to convert MTS to a coloured compound is measured after 72 hours of incubation of a compound of formula (I) according to the invention. […]

[3] = system: KG-1a line; assay: MTS cell proliferation and viability test, KG-1a line; settings: Homo sapiens, KG-1a leukaemia line, 72 hours of incubation, read-out: IC50 (50% loss of cell proliferation and cell viability)
Protocol: […]
as §1

[4] = system: Kasumi-1 line; assay: MTS cell proliferation and viability test, Kasumi-1 line; settings: Homo sapiens, Kasumi-1 leukaemia line, 72 hours of incubation, read-out: IC50 (50% loss of cell proliferation and cell viability)
Protocol: […]
as §1

| SMILES | IC50 [1] | IC50 [2] | IC50 [3] | IC50 [4] |
| --- | --- | --- | --- | --- |
| CC(C)(C)NC(=O)Nc1nc2nc(Nc3ccc4ncnn4c3)ncc2cc1-c1c(Cl)cccc1Cl [Compound No. 9, N-[6-(2,6-dichlorophenyl)-2-([1,2,4]triazolo[1,5-a]pyridin-6-ylamino)pyrido[2,3-d]pyrimidin-7-yl]-N′-(1,1-dimethylethyl)urea] | 19 nM |  |  |  |
| CC(C)(C)NC(=O)Nc1nc2nc(Nc3ccc4oc(CN)nc4c3)ncc2cc1-c1c(Cl)cccc1Cl [Compound No. 7, N-[2-[[2-(aminomethyl)-5-benzoxazolyl]amino]-6-(2,6-dichlorophenyl)pyrido[2,3-d]pyrimidin-7-yl]-N′-(1,1-dimethylethyl)urea] |  | 43 nM |  |  |
| CC(C)(C)NC(=O)Nc1nc2nc(Nc3ccc4nsnc4c3)ncc2cc1-c1c(Cl)cccc1Cl [Compound No. 1, N-[2-(2,1,3-benzothiadiazol-5-ylamino)-6-(2,6-dichlorophenyl)pyrido[2,3-d]pyrimidin-7-yl]-N′-(1,1-dimethylethyl)urea] | 40 nM |  | 50 nM | 40 nM |

Second part, led by results:

| IC50 [1] | SMILES | IC50 [2] | IC50 [3] | IC50 [4] |
| --- | --- | --- | --- | --- |
| 74 nM | CCNC(=O)Nc1nc2nc(Nc3ccc4nsnc4c3)ncc2cc1-c1c(Cl)cccc1Cl [Compound No. 13, N-[2-(2,1,3-benzothiadiazol-5-ylamino)-6-(2,6-dichlorophenyl)pyrido[2,3-d]pyrimidin-7-yl]-N′-ethylurea] |  |  |  |
| 5 nM | CCN(CC)Cc1cc2cc(Nc3ncc4cc(-c5c(Cl)cccc5Cl)c(NC(=O)NC(C)(C)C)nc4n3)ccc2o1 [Compound No. 5, N-[6-(2,6-dichlorophenyl)-2-[[2-[(diethylamino)methyl]-5-benzofuranyl]amino]pyrido[2,3-d]pyrimidin-7-yl]-N′-(1,1-dimethylethyl)urea] |  |  |  |
